Source: paper PMC5561102, “Fusion protein analysis reveals the precise regulation between Hsp70 and Hsp100 during protein disaggregation” (Scientific Reports, 2017)

Legend:
Test in all cases: UV difference spectrum after size exclusion chromatography
Conditions in all cases: 3 mM ATP, 55 °C 60 min incubation, pH 7.5, 5 mM MgCl2; binding stoichiometry, not an affinity
[1] = target: T1, TDnaK (Thermus thermophilus, UniProt Q56235, K69A)
T1 construct: gene dnaK; full length, untagged (plasmid pMDK6), expressed in E. coli; C-terminus Asp615

[2] = target: T2, TDnaK (Thermus thermophilus, UniProt Q56235, T195A)
T2 construct: gene dnaK; full length, untagged (plasmid pMDK6), expressed in E. coli; C-terminus Asp615

[3] = target: T3, TDnaK (Thermus thermophilus, UniProt Q56235)
T3 construct: gene dnaK; full length, untagged (plasmid pMDK6), expressed in E. coli; C-terminus Asp615
T3 sequence (Q56235 whole entry): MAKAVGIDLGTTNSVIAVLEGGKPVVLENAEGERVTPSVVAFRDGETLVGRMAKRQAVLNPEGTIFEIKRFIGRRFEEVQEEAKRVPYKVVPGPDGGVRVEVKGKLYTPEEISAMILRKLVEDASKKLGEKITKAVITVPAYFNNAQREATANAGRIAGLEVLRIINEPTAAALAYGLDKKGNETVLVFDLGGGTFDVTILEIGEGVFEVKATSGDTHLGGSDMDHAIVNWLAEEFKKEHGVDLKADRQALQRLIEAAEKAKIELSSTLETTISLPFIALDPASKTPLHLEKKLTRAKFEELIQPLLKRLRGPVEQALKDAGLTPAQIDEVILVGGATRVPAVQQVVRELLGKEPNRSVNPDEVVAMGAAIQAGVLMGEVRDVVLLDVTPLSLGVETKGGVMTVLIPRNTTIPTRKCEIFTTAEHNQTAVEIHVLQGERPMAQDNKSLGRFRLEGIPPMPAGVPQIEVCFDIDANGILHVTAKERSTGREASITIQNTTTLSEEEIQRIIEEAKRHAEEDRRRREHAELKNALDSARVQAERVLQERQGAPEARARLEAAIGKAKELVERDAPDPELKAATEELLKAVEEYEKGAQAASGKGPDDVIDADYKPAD

T1 sequence (Q56235 whole entry K69A): as the sequence (Q56235 whole entry) above, with K69A counted along it
T2 sequence (Q56235 whole entry T195A): as the sequence (Q56235 whole entry) above, with T195A counted along it

bound ATP per TDnaK [1]: 0.89 mol/mol | bound ATP per TDnaK [2]: 0.64 mol/mol | bound ATP per TDnaK [3]: 0.70 mol/mol
Compound: Nc1ncnc2c1ncn2[C@@H]1O[C@H](COP(=O)(O)OP(=O)(O)OP(=O)(O)O)[C@@H](O)[C@H]1O [ATP]
